A value given as a limit tells only on which side of the number the result lay.

One assay concerns the target T1, Human DYRK1B (Homo sapiens, UniProt Q9Y463).
T1 construct: purchased Invitrogen PR8350B (former PV4649)
Description: DYRK1B Kinase TR-FRET (IMAP-Tb) Assay. The format is biochemical. Conditions: TR-FRET; ATP 70 μM; 37° C. for 60 minutes; averages of multiple runs; read-out: Enzyme IC50 DYRK1B. (Time-resolved FRET reads energy transfer from a long-lived donor to a nearby acceptor.)

Another assay has as its target T2, Human DYRK1A (Homo sapiens, UniProt Q13627).
T2 construct: purchased Invitrogen PV3997
Nature of the assay: DYRK1A Kinase TR-FRET (IMAP-Tb) Assay. The format is biochemical. Conditions: TR-FRET; ATP 70 μM; 37° C. for 60 minutes; averages of multiple runs; read-out: Enzyme IC50 DYRK1A.

The test system of assay [1] is SW620 human colon cancer cells. Description: SW620 Cell Viability Assay (CellTiter-Glo). In kind it is cell-based. Conditions: SW-620, 96 h, 4 days incubation, read-out: Cellular EC50 SW620. The protocol:
1. Cell Plate Preparation: SW620 human colon cancer cells (known to express DYRK1B), obtained from ATCC, were seeded into 96-well plates at […] in 50 μL of media. • Harvested the required number of cells (counts & viability determined by Guava Viacount). • Centrifuge cells to pellet and removed supernant. • Resuspended in growth media (50 μL/well) & pipetted thoroughly to break up clumps. • Setup for ˜100 wells/plate, therefore, VT=5 mL/plate @ 1.2×10^5 cells/mL. 1A. Some cells (S-) were allowed to attach for 24 hrs, serum starved for 48 hrs, and then followed with treatments of test compound.
Test Compound solution was prepared in regular corresponding media supplemented with serum
2. Test Compound Preparation: Test compounds were solubilized in either DMSO or media and prepared at various stock concentrations. • All compounds were incubated at 37° C. for 30 minutes and vortexed. • (5 mM stocks of test compound were prepared for non-soluble drugs)
3. Test Compound Plate Preparation:
• The 10 mM test compound stock was diluted to a concentration of 100× the final Cmax concentration. • Then the test compound stock is diluted 50-fold in media and/or second test compound for a final Cmax concentration in the test compound plate. • The Cmax in the test compound plate (2% DMSO) is 2-fold higher than the final Cmax in the cell plate (60 uL titrations were 1:3). 4. Viability Assay: This assay was performed as follows: • Transfer 50 μL of test compound solution per well from the test compound plate onto the cell plate prepared in Step #1. • Mix the plate with treated cells by pipetting up and down three times with 200 μL multi-channel pipet. • Incubate the cells in 5% CO2 incubator @ 37° C. for 4 days. • Run the CellTiter-Glo™ Luminescent Cell Viability Assay. The results of this assay, given as EC50 values, indicate the concentration of test compound that inhibits tumor cell proliferation by 50%.

T1 sequence (Q9Y463 whole entry): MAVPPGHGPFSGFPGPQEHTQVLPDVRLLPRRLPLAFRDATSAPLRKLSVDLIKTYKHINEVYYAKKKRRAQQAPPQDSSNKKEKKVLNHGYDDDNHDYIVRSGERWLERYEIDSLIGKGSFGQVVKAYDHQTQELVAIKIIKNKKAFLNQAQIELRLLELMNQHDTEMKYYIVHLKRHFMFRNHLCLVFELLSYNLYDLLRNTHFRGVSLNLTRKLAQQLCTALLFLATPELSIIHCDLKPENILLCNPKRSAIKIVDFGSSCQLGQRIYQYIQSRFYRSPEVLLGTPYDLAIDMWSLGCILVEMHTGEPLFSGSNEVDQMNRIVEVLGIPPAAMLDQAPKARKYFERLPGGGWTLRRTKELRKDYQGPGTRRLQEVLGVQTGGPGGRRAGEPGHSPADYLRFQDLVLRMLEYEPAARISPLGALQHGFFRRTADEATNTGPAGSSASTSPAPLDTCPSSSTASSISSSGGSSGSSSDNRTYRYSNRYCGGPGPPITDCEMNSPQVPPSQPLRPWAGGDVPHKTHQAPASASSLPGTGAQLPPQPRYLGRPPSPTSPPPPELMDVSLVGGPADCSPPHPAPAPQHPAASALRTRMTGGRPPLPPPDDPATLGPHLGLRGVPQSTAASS

`COc1cc2[nH]c(=O)c(C(=O)Nc3cc(C(=O)NC(CCN)c4ccccc4)ccc3C)cc2cc1OCCN1CCOCC1` (stereo not drawn) [Example 44, 7-Methoxy-6-(2-morpholin-4-yl-ethoxy)-2-oxo-1,2-dihydro-quinoline-3-carboxylic acid [5-(3-amino-1-phenyl-propylcarbamoyl)-2-methyl-phenyl]-amide]: the IC50 amounted to 63 nM on Human DYRK1B and 33.4 nM at Human DYRK1A. In addition, the EC50 in assay [1] is over 3000 nM.
Turning to `COCCOc1cc2cc(C(=O)Nc3cc(C(=O)NCc4cccc(Cl)c4)ccc3C)c(=O)[nH]c2cc1OC` [Example 52, 7-Methoxy-6-(2-methoxy-ethoxy)-2-oxo-1,2-dihydro-quinoline-3-carboxylic acid [5-(3-chloro-benzylcarbamoyl)-2-methyl-phenyl]-amide], the IC50 at Human DYRK1B came to 181 nM; on Human DYRK1A, 118 nM. Also, the EC50 in assay [1] came out at 780 nM.
`COCCOc1cc2cc(C(=O)Nc3cc(C(=O)OC)ccc3Cl)c(=O)[nH]c2cc1OC` [Example 53, Methyl 4-chloro-3-(7-methoxy-6-(2-methoxyethoxy)-2-oxo-1,2-dihydroquinoline-3-carboxamido)benzoate]: the IC50 at Human DYRK1B came to 115 nM; at Human DYRK1A, 245 nM. In addition, the concentration for a half-maximal effect (EC50) in assay [1] is over 10000 nM.
With `COCCOc1cc2cc(C(=O)Nc3cc(C(=O)NCc4cccc(Cl)c4)ccc3Cl)c(=O)[nH]c2cc1OC` [Example 55, N-(2-Chloro-5-(3-chlorobenzylcarbamoyl)phenyl)-7-methoxy-6-(2-methoxyethoxy)-2-oxo-1,2-dihydroquinoline-3-carboxamide], the IC50 came to 37.3 nM on Human DYRK1B and 48.9 nM at Human DYRK1A. In addition, the EC50 in assay [1] is 129 nM.
For `COc1cc2cc(C(=O)Nc3cc(C(=O)N[C@H](CO)c4ccccc4)ccc3C)c(=O)[nH]c2cc1OC` [Example 57, (S)-N-(5-(2-Hydroxy-1-phenylethylcarbamoyl)-2-methylphenyl)-6,7-dimethoxy-2-oxo-1,2-dihydroquinoline-3-carboxamide], the IC50 was 883 nM at Human DYRK1B and 186 nM at Human DYRK1A. For the same compound, the EC50 in assay [1] was found to be 6500 nM.
For the compound `COCCOc1cc2cc(C(=O)Nc3cc(C(=O)NC(CN)c4cccc(Cl)c4)ccc3Cl)c(=O)[nH]c2cc1OC` (stereo not drawn) [Example 60, N-(5-(2-Amino-1-(3-chlorophenyl)ethylcarbamoyl)-2-chlorophenyl)-7-methoxy-6-(2-methoxyethoxy)-2-oxo-1,2-dihydroquinoline-3-carboxamide], the results for the IC50 at Human DYRK1B and on Human DYRK1A were 21.7 nM and 14.3 nM, respectively. In assay [1], the EC50 came to 200 nM.
As for `COCCOc1cc2cc(C(=O)Nc3cc(C(=O)NC(CCN)c4ccccc4)ccc3Cl)c(=O)[nH]c2cc1OC` (stereo not drawn) [Example 61, N-(5-(3-Amino-1-phenylpropylcarbamoyl)-2-chlorophenyl)-7-methoxy-6-(2-methoxyethoxy)-2-oxo-1,2-dihydroquinoline-3-carboxamide], the IC50 at Human DYRK1B amounted to 11.5 nM; on Human DYRK1A, 15.7 nM. In addition, the EC50 in assay [1] was found to be 470 nM.
As to `COCCOc1cc2cc(C(=O)Nc3cc(C(=O)NC(CN)c4ccccc4)ccc3Cl)c(=O)[nH]c2cc1OC` (stereo not drawn) [Example 62, N-(5-(2-Amino-1-phenylethylcarbamoyl)-2-chlorophenyl)-7-methoxy-6-(2-methoxyethoxy)-2-oxo-1,2-dihydroquinoline-3-carboxamide], the IC50 at Human DYRK1B is 29.1 nM; on Human DYRK1A it was 11.4 nM. In assay [1], the EC50 stood at 440 nM.
In the same order, the values of `COCCOc1cc2cc(C(=O)Nc3cc(C(=O)N[C@H](CCN)c4ccccc4)ccc3Cl)c(=O)[nH]c2cc1OC` [Example 63, (R)-N-(5-(3-Amino-1-phenylpropylcarbamoyl)-2-chlorophenyl)-7-methoxy-6-(2-methoxyethoxy)-2-oxo-1,2-dihydroquinoline-3-carboxamide] are 8 nM, 5 nM and 640 nM.
For `COCCOc1cc2cc(C(=O)Nc3cc(C(=O)N[C@@H](CCN)c4ccccc4)ccc3Cl)c(=O)[nH]c2cc1OC` [Example 64, (S)-N-(5-(3-Amino-1-phenylpropylcarbamoyl)-2-chlorophenyl)-7-methoxy-6-(2-methoxyethoxy)-2-oxo-1,2-dihydroquinoline-3-carboxamide], the IC50 came out at 253 nM at Human DYRK1B and 186 nM on Human DYRK1A. The EC50 in assay [1] turned out to be 9200 nM.

The IC50 is the concentration needed to halve the response being measured. As a reminder, the EC50 is the concentration needed to bring the measured effect to its halfway point.

Values taken from US20120184548A1, “CARBOXYLIC ACID ARYL AMIDES” (priority 2011, published 2012).
